Earlier results, collected in patent publication US20110229902A1, “METHOD FOR DETERMINING THE […] OF FUNGI AND YEASTS, IN PARTICULAR OF A[…]” (STICHTING TER B[…] DE FARMACODYNAMIEK, priority 2008, published 2011).

Legend:
Set-up in all cases: key: R = resistant; S = sensitive
[1] = test system: Aspergillus fumigatus cyp51A L98H + TR; conditions: A. fumigatus isolate with cyp51A L98H + TR (tandem repeat in promoter)
[2] = test system: Aspergillus fumigatus cyp51A M220X; conditions: A. fumigatus isolate with cyp51A mutation M220X
[3] = test system: Aspergillus fumigatus cyp51A G138C; conditions: A. fumigatus isolate with cyp51A mutation G138C
[4] = test system: Aspergillus fumigatus cyp51A G54W; conditions: A. fumigatus isolate with cyp51A mutation G54W
[5] = test system: Aspergillus fumigatus cyp51A G54X; conditions: A. fumigatus isolate with cyp51A mutation G54X

Compound: CC[C@@H]([C@H](C)O)n1ncn(-c2ccc(N3CCN(c4ccc(OC[C@@H]5CO[C@@](Cn6cncn6)(c6ccc(F)cc6F)C5)cc4)CC3)cc2)c1=O [Posaconazole]
- resistance status (resistant or sensitive) [1]: S
- resistance status (resistant or sensitive) [2]: S
- resistance status (resistant or sensitive) [3]: S
- resistance status (resistant or sensitive) [4]: R
- resistance status (resistant or sensitive) [5]: S

Compound: C[C@@H](c1ncncc1F)[C@](O)(Cn1cncn1)c1ccc(F)cc1F [Voriconazole]
- resistance status (resistant or sensitive) [1]: R
- resistance status (resistant or sensitive) [2]: S
- resistance status (resistant or sensitive) [3]: R
- resistance status (resistant or sensitive) [4]: S
- resistance status (resistant or sensitive) [5]: S

Compound: C[C@@H](c1nc(-c2ccc(C#N)cc2)cs1)[C@](O)(Cn1cncn1)c1ccc(F)cc1F [Ravuconazole]
- resistance status (resistant or sensitive) [1]: R
- resistance status (resistant or sensitive) [2]: S
- resistance status (resistant or sensitive) [3]: R
- resistance status (resistant or sensitive) [4]: S
- resistance status (resistant or sensitive) [5]: S
